This note sets out measurements from US11560388B2, “Anthelmintic aza-benzothiophene and aza-benzofuran compounds” (Boehringer Ingelheim Vetmedica GmbH, priority 2019, dated 2023).

Experiment [1] deals with L1 Haemonchus contortus larvae. The experiment in a line: Screening of activity against Haemonchus contortus (larval development L1 to L3, dose response). The following applies: 96 h, read-out: EC50 (development of the larvae from L1 to L3). Type of experiment: cell-based.
The test system of the next experiment is Dirofilaria immitis. The experiment in a line: In vivo efficacy against Dirofilaria immitis in immunodeficient NSG mice. The following applies: vs control group.
The test system of the next experiment is Haemonchus contortus. The experiment in a line: In vivo efficacy against Haemonchus contortus in Mongolian jird (Meriones unguiculatus).
The subject of experiment [2] is Trichostrongylus colubriformis. Briefly: In vivo efficacy against Trichostrongylus colubriformis in Mongolian jird (Meriones unguiculatus).
Experiment [3] relates to microfilariae of Dirofilaria immitis. Briefly: Screening of activity against microfilaria of Dirofilaria immitis (motility, dose response). The following applies: 72 h, read-out: EC50 (motility of the microfilaria). Type of experiment: cell-based.
Setting [4] is: Study #2, NSG mice, 25 mg/kg oral.
The mark [5] stands for this setting: Study #2, NSG mice, 50 mg/kg oral.
The mark [6] stands for this setting: Study 3, jird, 25 mg/kg oral gavage.
Where [7] appears, read: Study 4, jird, 5 mg/kg oral gavage.
The mark [8] stands for this setting: Study #3, NSG mice, 25 mg/kg oral.
Setting [9] is: Study 4, jird, 25 mg/kg oral gavage.
Setting [10] is: Study 2, jird, 25 mg/kg oral gavage.
Where [11] appears, read: Study 1, jird, 25 mg/kg oral gavage, necropsy 3 days after treatment.
The mark [12] stands for this setting: Study 1, jird, 10 mg/kg, positive control.
The mark [13] stands for this setting: Study 2, jird, 10 mg/kg, positive control.
The mark [14] stands for this setting: Study 3, jird, 10 mg/kg, positive control.
[15] abbreviates: Study 4, jird, 10 mg/kg, positive control.

In general, EC50 refers to the midpoint of the concentration-response curve.

Regarding `O=C(N[C@H]1CCOc2ccccc21)c1sc2c(-c3cc(F)cc(F)c3)cccc2c1C1=CCOCC1` [Compound 102-1], the EC50 in experiment [1] lay in the range of 100 to 10000 nM.
As to `C=C(C)c1c(C(=O)N[C@H]2CCOc3ccccc32)sc2c(-c3cc(F)cc(F)c3)ccnc12` [Compound 119], in experiment [1], the concentration for a half-maximal effect (EC50) lay within 100 to 10000 nM. Besides, the figures for the “% Reduction worms” value with Dirofilaria immitis (setting [4]) and with Dirofilaria immitis (setting [5]) were 67% and 37%, respectively.
With `CC(C)c1c(C(=O)N[C@H]2CCOc3ccccc32)sc2c(-c3cc(F)cc(F)c3)ccnc12` [Compound 120], the “% Reduction worms” value in the experiment on Dirofilaria immitis (setting [4]) was found to be 47%; in the experiment on Dirofilaria immitis (setting [5]), 33%.
Take `Cc1cc(F)cc(C)c1-c1ccnc2c(C(C)C)c(C(=O)N[C@H]3CCOc4ccccc43)sc12` [Compound 201, N-[(4S)-3,4-dihydro-2H-1-benzopyran-4-yl]-7-(4-fluoro-2,6-dimethylphenyl)-3-isopropylthieno[3,2-b]pyridine-2-carboxamide]: the EC50 in experiment [1] lay in the range of 100 to 10000 nM.
In the case of `CC(C)c1c(C(=O)N[C@H]2CCOc3ccccc32)sc2c(-c3cc(F)cc(F)c3)c(F)cnc12` [Compound 204], in the experiment on Dirofilaria immitis (Study #1, NSG mice, 50 mg/kg oral at Days 1, 15, 30 post-infection), the “% Reduction worms” value turned out to be 65%. The “% Reduction H. contortus” value in the experiment on Haemonchus contortus (setting [6]) is 100.0%; with Haemonchus contortus (setting [7]), 50.1%. The “% Reduction T. columbriformis” value is recorded as 100.0% in experiment [2] (setting [6]) and 22.2% in experiment [2] (setting [7]).
For `O=C(N[C@H]1CCOc2ccccc21)c1sc2c(-c3cc(F)cc(F)c3)ccnc2c1C(F)F` [Compound 205], the EC50 in experiment [3] and in experiment [1] was 100 to 10000 nM in each case.
For `CC(C)c1c(C(=O)N[C@H]2CCOc3ccccc32)sc2c(-c3cccc(F)c3)ccnc12` [Compound 207], the “% Reduction worms” value with Dirofilaria immitis (setting [8]) amounted to 55%.
`CC(C)(C)c1c(C(=O)N[C@H]2CCOc3ccccc32)sc2c(-c3cc(F)cc(F)c3)ccnc12` [Compound 210]: the “% Reduction worms” value in the experiment on Dirofilaria immitis (setting [8]) was determined as 55%. Moreover, the “% Reduction H. contortus” value with Haemonchus contortus (setting [6]) was determined as 100.0%. The “% Reduction T. columbriformis” value in experiment [2] (setting [6]) came out at 100.0%.
As to `CC(C)c1c(C(=O)N[C@H]2CCOc3ccc(F)cc32)sc2c(-c3cc(Cl)cc(Cl)c3)ccnc12` [Compound 211], in the experiment on Dirofilaria immitis (Study #1, NSG mice, 25 mg/kg oral at Days 1, 15, 30 post-infection), the “% Reduction worms” value was 61%. In the experiment with Haemonchus contortus (setting [6]), the “% Reduction H. contortus” value amounted to 100.0%. In addition, in experiment [2] (setting [6]), the “% Reduction T. columbriformis” value was 100.0%.
Consider `CC(C)(F)c1c(C(=O)N[C@H]2CCOc3ccccc32)sc2c(-c3cc(Cl)cc(Cl)c3)ccnc12` [Compound 212], for which the “% Reduction worms” value in the experiment with Dirofilaria immitis (Study #1, NSG mice, 23 mg/kg (table) oral at Days 1, 15, 30 post-infection) was 13%.
Regarding `C[C@@H]1C[C@H](C)CN(c2ccnc3c(N4CCOCC4)c(C(=O)N[C@H]4CCOc5ccccc54)sc23)C1` [Compound 217], the EC50 in experiment [3] was in the range of 100 to 10000 nM.
Turning to `CC(C)c1c(C(=O)N[C@H]2CCOc3ccccc32)sc2c(C3CCCCC3)ccnc12` [Compound 223], the results for the EC50 in experiment [3] and in experiment [1] were under 10 nM and 100 to 10000 nM, respectively.
For `O=C(N[C@H]1CCOc2ccccc21)c1sc2c(-c3cc(F)cc(F)c3)ccnc2c1C(F)(F)C(F)(F)F` [Compound 238], in that order: under 10 nM and 100 to 10000 nM.
As for `C=C(C)c1c(C(=O)N[C@H]2CCOc3ccccc32)sc2c(-c3cc(F)cc(F)c3)cnnc12` [Compound 239-INT-1], the EC50 in experiment [1] was in the range of 100 to 10000 nM.
Turning to `CC(C)c1c(C(=O)N[C@H]2CCOc3ccccc32)sc2c(C3(F)CCCCC3)ccnc12` [Compound 255, N-[(4S)-3,4-dihydro-2H-1-benzopyran-4-yl]-7-(1-fluorocyclohexyl)-3-isopropylthieno[3,2-b]pyridine-2-carboxamide], the EC50 in experiment [1] lay within 100 to 10000 nM.
As to `CC(C)c1c(C(=O)N[C@H]2CCOc3ccc(F)cc32)sc2c(-c3cc(F)cc(F)c3)ccnc12` [Compound 257], the “% Reduction worms” value in the experiment on Dirofilaria immitis (setting [8]) came out at 45%.
Take `CC(=O)c1c(C(=O)N[C@H]2CCOc3ccc(F)cc32)sc2c(-c3cc(Cl)cc(Cl)c3)ccnc12` [Compound 259-4]: the EC50 in experiment [3] lay within 100 to 10000 nM.
`CC(C)(F)c1c(C(=O)N[C@H]2CCOc3ccc(F)cc32)sc2c(-c3cc(Cl)cc(Cl)c3)ccnc12` [Compound 259]: the “% Reduction H. contortus” value in the experiment on Haemonchus contortus (setting [9]) was found to be 100.0%. Besides, the “% Reduction T. columbriformis” value in experiment [2] (setting [9]) is on record as 99.5%.
As to `CC(C)c1c(C(=O)N[C@H]2CCOc3ccc(F)cc32)sc2c(-c3cc(F)cc(F)c3)c(F)cnc12` [Compound 260], the “% Reduction H. contortus” value in the experiment with Haemonchus contortus (setting [9]) came to 23.5%. In addition, the “% Reduction T. columbriformis” value in experiment [2] (setting [9]) is 45.8%.
Turning to `CC(C)(O)c1c(C(=O)N[C@H]2CCOc3ccccc32)sc2c(-c3cc(Cl)cc(Cl)c3)c(F)cnc12` [Compound 263-8], the concentration for a half-maximal effect (EC50) in experiment [3] is under 10 nM; in experiment [1], under 100 nM. Also, the “% Reduction H. contortus” value in the experiment on Haemonchus contortus (setting [10]) and in the experiment on Haemonchus contortus (setting [7]) was 99.8% throughout. The “% Reduction T. columbriformis” value is on record as 100.0% in experiment [2] (setting [10]) and 99.9% in experiment [2] (setting [7]).
Take `CC(C)(F)c1c(C(=O)N[C@H]2CCOc3ccccc32)sc2c(-c3cc(Cl)cc(Cl)c3)c(F)cnc12` [Compound 263]: in the experiment on Haemonchus contortus (setting [11]), the “% Reduction H. contortus” value was 100.0%. In experiment [2] (setting [11]), the “% Reduction T. columbriformis” value is 100.0%.
For `CC(C)(F)c1c(C(=O)N[C@H]2CCOc3ccccc32)sc2c(-c3cc(Cl)cc(Cl)c3)cncc12` [Compound 264, 7-(3,5-dichlorophenyl)-N-[(4S)-3,4-dihydro-2H-1-benzopyran-4-yl]-3-(2-fluoropropan-2-yl)thieno[3,2-c]pyridine-2-carboxamide], the EC50 is under 10 nM in experiment [3] and under 100 nM in experiment [1].
In the case of `CC(C)(O)c1c(C(=O)N[C@H]2CCOc3ccccc32)sc2c(-c3cc(Cl)cc(Cl)c3)cncc12` [Compound 264-0, 7-(3,5-dichlorophenyl)-N-[(4S)-3,4-dihydro-2H-1-benzopyran-4-yl]-3-(2-hydroxypropan-2-yl)thieno[3,2-c]pyridine-2-carboxamide], the EC50 in experiment [1] is under 100 nM.
With `CC(C)(O)c1c(C(=O)N[C@H]2CCOc3ccccc32)sc2c(-c3ccnc(Cl)c3)ccnc12` [Compound 268-4], the EC50 in experiment [1] was in the range of 100 to 10000 nM.
As to `C=C(C)c1c(C(=O)N[C@H]2CCOc3ccccc32)sc2c(-c3cc(Cl)cc(Cl)c3)ccnc12` [Compound 285], the “% Reduction H. contortus” value in the experiment with Haemonchus contortus (setting [11]) is 100.0%. The “% Reduction T. columbriformis” value in experiment [2] (setting [11]) is given as 100.0%.
Regarding `CC(C)c1c(C(=O)N[C@H]2CCOc3ccccc32)sc2c(-c3cc(F)cc(F)c3)c(Cl)cnc12` [Compound 310], the EC50 in experiment [3] is 100 to 10000 nM; in experiment [1], under 100 nM.
Consider `c1ccc([C@H]2CN3CCSC3=N2)cc1` [Levamisole, levamisole, reference compound], for which the “% Reduction H. contortus” value in the experiment on Haemonchus contortus (setting [12]) is given as 98.4%; in the experiment on Haemonchus contortus (setting [13]), 100.0%; with Haemonchus contortus (setting [14]), 100.0%; with Haemonchus contortus (setting [15]), 99.8%. Moreover, the “% Reduction T. columbriformis” value in experiment [2] (setting [12]) is given as 89.1%; in experiment [2] (setting [13]), 96.4%; in experiment [2] (setting [14]) it was 100.0%; in experiment [2] (setting [15]) it was 72.2%.
